The values that follow come from patent US10968224B2, “2,11-diaza-[3.3](2,6)pyridinophane compounds and their application as ligands of essential metal ion based MRI contrast agents and 52MN based PET contrast agents” (DEBRECENI EGYETEM, priority 2015, dated 2021).

Data set [1] is described as follows: Equilibrium study: stability constants of the Mn(II) complexes and calculated pMn. The format is physicochemical. The following applies: 25° C., 0.15M NaCl; for pMn: calculated from equilibrium constants at pH = 7.4 and cMn = cL = 10^−5 M. The protocol: (§1) During the physico-chemical studies of BP2AM^Pyp and BP2AM^Pro compounds prepared according to Example 1 and 2, their protonation constants, as well as equilibrium behaviour and kinetic inertness of their Mn(II) complexes was studied in detail, and the characteristic relaxivity values of the complexes were determined in the presence and absence of HSA (Human Serum Albumin), at 25 and 37° C. and physiological pH. All studies were performed in the presence of 0.15 M NaCl, the same concentration as that of the electrolyte under physiological conditions.
(§2) The results of equilibrium study are summarized in Table 1, in addition to the protonation constants, total basicity of ligands and stability constants of their Mn(II) complexes, the pMn value calculated for complexes are also represented in the table.
Based on the pMn values presented in Table 1 (calculated using the equilibrium constants at pH=7.4 and cMn=cL=10^−5 M), it can be concluded that the studied Mn(II) complexes are formed in 100% at physiological pH, which is an essential aspect of the practical use.

The nature of data set [2]: Equilibrium study: protonation constants of the ligands. To be noted: 25° C., 0.15M NaCl. The format is physicochemical. As for the experimental part:
as §1, §2

The conditions of data set [3]: cited from earlier work.
The conditions of data set [4]: literature values, stated as under the same conditions; cited from earlier work.

The structures appear in SMILES notation.

For `O=C(CN1Cc2cccc(n2)CN(CC(=O)N2CCCCC2)Cc2cccc(n2)C1)N1CCCCC1` [BP2AM^Pyp, 2,11-bis[2-oxo-2-(piperidine-1-il)-ethyl]-2,11-diaza[3.3](2,6)-pyridinophane], in data set [1], the “logKMnL (stability constant of Mn(II) complex)” value was 13.58(1) and the pMn is on record as 8.19. Besides, in data set [2], the “logK1 (protonation constant)” value was 9.57(2), the “logK2 (protonation constant)” value is recorded as 2.99(2) and the “ΣlogKi^H (total basicity)” value worked out at 12.56.
In the case of `CNC[C@H](O)[C@@H](O)[C@H](O)[C@H](O)CO.CNC[C@H](O)[C@@H](O)[C@H](O)[C@H](O)CO.O=C([O-])CN(CCN(CC(=O)[O-])CC(=O)O)CCN(CC(=O)[O-])CC(=O)O.[Gd+3]` [MAGNEVIST], the “Gd(III) ion released, calculated on the basis of experiments” value in data set [3] (25° C.) is listed as 0.5%. Further, in data set [3] (37° C.), the “Gd(III) ion released during in vivo dissociation” value was 2.2%. For the same compound, in data set [4], the r1 relaxivity is 4.02 mM⁻¹ s⁻¹.
Consider `CNC[C@H](O)[C@@H](O)[C@H](O)[C@H](O)CO.O=C([O-])CN1CCN(CC(=O)[O-])CCN(CC(=O)O)CCN(CC(=O)[O-])CC1.[Gd+3]` [DOTAREM], for which the r1 relaxivity in data set [4] is 3.83 mM⁻¹ s⁻¹.
With `O=C(O)C1CCCN1C(=O)CN1Cc2cccc(n2)CN(CC(=O)N2CCCC2C(=O)O)Cc2cccc(n2)C1` (stereo not shown) [BP2AM^Pro], in data set [1], the “logKMnL (stability constant of Mn(II) complex)” value is recorded as 11.47(5) and the pMn is on record as 7.51. Further, in data set [2], the “logK1 (protonation constant)” value is given as 8.83(1), the “logK2 (protonation constant)” value is 3.89(2), the “logK3 (protonation constant)” value is recorded as 3.05(2) and the “logK4 (protonation constant)” value was 2.39(2). Moreover, the “ΣlogKi^H (total basicity)” value in data set [2] is recorded as 18.16.
